In ChEMBL document CHEMBL1201862, “PubChem BioAssay data set” (2004):
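Growth conditions: 96-well plates. Treatment: test compound, 48 hours, 5 concentrations. Analysis: linear interpolation between bracketing concentrations; unreached endpoints set to highest concentration. Abbreviation: GI50, concentration required for 50% inhibition of growth.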 Activity calls are given as the source filed them. No stated cut-off is given here; in the data, active = GI50 up to about 1.1 µM and inactive = higher.

What was measured:
Experiment in all cases: NCI-60 cell line screen, 48 h
HCC 2998 = tested on: HCC 2998
OVCAR-3 = tested on: OVCAR-3
SF-295 = tested on: SF-295
HCT-15 = tested on: HCT-15
M14 = tested on: M14
EKVX = tested on: EKVX
A498 = tested on: A498
OVCAR-4 = tested on: OVCAR-4
UACC-257 = tested on: UACC-257
HT-29 = tested on: HT-29
SF-539 = tested on: SF-539
HCT-116 = tested on: HCT-116
A549 = tested on: A549
CAKI-1 = tested on: CAKI-1
NCI-H522 = tested on: NCI-H522
SNB-19 = tested on: SNB-19
NCI-H23 = tested on: NCI-H23
NCI-H460 = tested on: NCI-H460
RXF 393 = tested on: RXF 393

SMILES | GI50 (HCC 2998) | GI50 (OVCAR-3) | GI50 (SF-295) | GI50 (HCT-15) [µM] | GI50 (M14) | GI50 (EKVX) | GI50 (A498) | GI50 (OVCAR-4) | GI50 (UACC-257) | GI50 (HT-29) | GI50 (SF-539) | GI50 (HCT-116) | GI50 (A549) | GI50 (CAKI-1) | GI50 (NCI-H522) | GI50 (SNB-19) | GI50 (NCI-H23) | GI50 (NCI-H460) | GI50 (RXF 393)
CCOC(=O)CNC(=O)c1nc[nH]c1/N=N/N(C)C | > 100 µM (inactive) | > 100 µM (inactive) | > 100 µM (inactive) | > 100 | > 100 µM (inactive) | > 100 µM (inactive) | > 100 µM (inactive) | > 100 µM (inactive) | > 100 µM (inactive) | > 100 µM (inactive) | > 100 µM (inactive) | > 100 µM (inactive) | > 100 µM (inactive) | > 100 µM (inactive) | > 100 µM (inactive) | > 100 µM (inactive) | > 100 µM (inactive) | > 100 µM (inactive) | 
CC(=O)/C(=C/n1c(=S)[nH]c2ccccc21)C(=O)Nc1ccccc1C | > 100 µM (inactive) | > 100 µM (inactive) | > 100 µM (inactive) | > 100 | > 100 µM (inactive) | > 100 µM (inactive) | > 100 µM (inactive) | > 100 µM (inactive) | > 100 µM (inactive) | > 100 µM (inactive) | > 100 µM (inactive) | > 100 µM (inactive) | > 100 µM (inactive) | > 100 µM (inactive) |  | > 100 µM (inactive) | > 100 µM (inactive) | > 100 µM (inactive) | > 100 µM (inactive)
CC(=O)NNc1nc(C)c(C(=O)/C=C/c2ccc(NC(C)=O)cc2)s1 | > 100 µM (inactive) | > 100 µM (inactive) | > 100 µM (inactive) | > 100 |  | 71.3 µM (inactive) | > 100 µM (inactive) |  | 98.6 µM (inactive) | > 100 µM (inactive) | > 100 µM (inactive) |  | > 100 µM (inactive) | > 100 µM (inactive) | > 100 µM (inactive) | > 100 µM (inactive) | > 100 µM (inactive) | > 100 µM (inactive) | > 100 µM (inactive)
COc1ccc(OC)c2c(C(=O)O)c(Cc3ccccc3)ccc12 | > 100 µM (inactive) | > 100 µM (inactive) | > 100 µM (inactive) | > 100 | > 100 µM (inactive) | > 100 µM (inactive) | > 100 µM (inactive) | > 100 µM (inactive) | > 100 µM (inactive) | > 100 µM (inactive) |  | > 100 µM (inactive) | > 100 µM (inactive) | > 100 µM (inactive) | > 100 µM (inactive) | > 100 µM (inactive) | > 100 µM (inactive) | > 100 µM (inactive) | > 100 µM (inactive)
CCCCCCCCCCCCOC(=S)NC | 17.5 µM (inactive) |  | 25.9 µM (inactive) | 17.8 | 19.7 µM (inactive) | 20.4 µM (inactive) | 18.1 µM (inactive) | 24.1 µM (inactive) | 20.3 µM (inactive) | 18.6 µM (inactive) | 18.2 µM (inactive) | 16.9 µM (inactive) |  |  | 27.5 µM (inactive) | 33.4 µM (inactive) | 20.4 µM (inactive) | 18.5 µM (inactive) | 16.6 µM (inactive)
CCN(CC)CCC(=O)/C=C/c1ccc(C)cc1 | 18.6 µM (inactive) | 16.7 µM (inactive) | 18.1 µM (inactive) | 12.5 | 13.7 µM (inactive) | 17.1 µM (inactive) | 11.2 µM (inactive) | 18.4 µM (inactive) | 13.9 µM (inactive) | 15.1 µM (inactive) | 6.32 µM (inactive) | 13.4 µM (inactive) | 18.8 µM (inactive) | 1.83 µM (inactive) |  | 19.3 µM (inactive) | 17.1 µM (inactive) | 15.7 µM (inactive) | 15.3 µM (inactive)
COC(=O)C(CC(=O)c1ccccc1)c1ccccc1NC(C)=O (configuration not stated) | > 100 µM (inactive) | > 100 µM (inactive) | > 100 µM (inactive) | > 100 | > 100 µM (inactive) | > 100 µM (inactive) | > 100 µM (inactive) | > 100 µM (inactive) | > 100 µM (inactive) | > 100 µM (inactive) | > 100 µM (inactive) | > 100 µM (inactive) | > 100 µM (inactive) | > 100 µM (inactive) | > 100 µM (inactive) | > 100 µM (inactive) | > 100 µM (inactive) | > 100 µM (inactive) | 
CCOC(=O)NC1C2CC(=O)C(O2)C1OCc1ccccc1 (configuration not stated) | > 100 µM (inactive) | > 100 µM (inactive) | > 100 µM (inactive) | > 100 | > 100 µM (inactive) |  | > 100 µM (inactive) | > 100 µM (inactive) | > 100 µM (inactive) | > 100 µM (inactive) | > 100 µM (inactive) |  | > 100 µM (inactive) | > 100 µM (inactive) |  |  | > 100 µM (inactive) | > 100 µM (inactive) | > 100 µM (inactive)
